The first data set concerns pentagastrin-stimulated acid secretion of the perfused rat stomach. As to the kind of experiment: Secretion-inhibiting action on the perfused rat stomach. Particulars: anesthetized female CD rat, dose 3 μmol/kg i.d. (intraduodenal). The text has this: Testing of the Secretion-Inhibiting Action on the Perfused Rat Stomach
In Table A which follows, the influence of the compounds of the formula 1 according to the invention on the pentagastrin-stimulated acid secretion of the perfused rat stomach after intraduodenal admnistation in vivo is shown.
The abdomen of anesthetized rats (CD rat, female, 200-250 g; 1.5 g/kg i.m. urethane) was opened after tracheotomy by a median upper abdominal incision and a PVC catheter was fixed transorally in the esophagus and another via the pylorus such that the ends of the tubes just projected into the gastric lumen. The catheter leading from the pylorus led outward into the right abdominal wall through a side opening.
After thorough rinsing (about 50-100 ml), warm (37° C.) physiological NaCl solution was continuously passed through the stomach (0.5 ml/min, pH 6.8-6.9; Braun-Unita I). The pH (pH meter 632, glass electrode EA 147; φ=5 mm, Metrohm) and, by titration with a freshly prepared 0.01N NaOH solution to pH 7 (Dosimat 665 Metrohm), the secreted HCl were determined in the effluent in each case collected at an internal of 15 minutes.
The gastric secretion was stimulated by continuous infusion of […] (=1.65 ml/h) of i.v. pentagastrin (left femoral vein) about 30 min after the end of the operation (i.e. after determination of 2 preliminary fractions). The substances to be tested were administered intraduodenally in a 2.5 ml/kg liquid volume 60 min after the start of the continuous pentagastrin infusion. The body temperature of the animals was kept at a constant 37.8-38° C. by infrared irradiation and heat pads (automatic, stepless control by means of a rectal temperature sensor).
Molecule `CNC(=O)c1cc2c(nc(C)n2C)c2c1[C@H](O)[C@H](O)[C@@H](c1ccccc1)N2` [Example 1, (6S,7R,8R)-[6,7,8,9-Tetrahydro-6,7-dihydroxy-2,3-dimethyl-8-phenyl-3H-imidazo[4,5-h]quinoline-5-yl]-carboxylic acid methylamide] gave an inhibition in vivo at 3 µmol/kg above 15%.
On the same count and under the same terms, as for `CNC(=O)c1cc2c(nc(C)n2C)c2c1[C@@H](O)[C@H](O)[C@@H](c1ccccc1)N2` [Example 2, (6R,7R,8R)-[6,7,8,9-Tetrahydro-6,7-dihydroxy-2,3-dimethyl-8-phenyl-3H-imidazo[4,5-h]quinoline-5-yl]-carboxylic acid methylamide], the figure is above 15%.
The same measure, in the same setting: as for `CCCCO[C@H]1c2c(C(=O)NC)cc3c(nc(C)n3C)c2N[C@H](c2ccccc2)[C@H]1O` [Example 3, (6S,7R,8R)-[6-n-butyloxy-6,7,8,9-tetrahydro-7-hydroxy-2,3-dimethyl-8-phenyl-3H-imidazo[4,5-h]quinoline-5-yl]-carboxylic acid methylamide], the figure is above 15%; as for `CCCCO[C@@H]1c2c(C(=O)NC)cc3c(nc(C)n3C)c2N[C@H](c2ccccc2)[C@H]1O` [Example 4, (6R,7R,8R)-[6-n-butyloxy-6,7,8,9-tetrahydro-7-hydroxy-2,3-dimethyl-8-phenyl-3H-imidazo[4,5-h]quinoline-5-yl]-carboxylic acid methylamide], above 15%; as for `C#CCO[C@H]1c2c(C(=O)NC)cc3c(nc(C)n3C)c2N[C@H](c2ccccc2)[C@H]1O` [Example 7, (6S,7R,8R)-[6,7,8,9-Tetrahydro-7-hydroxy-2,3-dimethyl-8-phenyl-6-propargyloxy-3H-imidazo[4,5-h]quinoline-5-yl]-carboxylic acid methylamide], above 15%.
Same read-out and setting: as for `CNC(=O)c1cc2c(nc(C)n2C)c2c1[C@@H](CC(F)F)[C@@H](O)[C@@H](c1ccccc1)N2` [Example 10, (6R,7R,8R)-[7-Hydroxy-2,3-dimethyl-8-phenyl-6-(2,2-difluoroethyl)-6,7,8,9-tetrahydro-3H-imidazo[4,5-h]quinoline-5-yl]-carboxylic acid methylamide], the figure is above 15%.
In turn, `CNC(=O)c1cc2c(nc(C)n2C)c2c1C[C@@H](O)[C@@H](c1ccccc1)N2` [Example 11, (7R,8R)-[7-Hydroxy-2,3-dimethyl-8-phenyl-6,7,8,9-tetrahydro-3H-imidazo[4,5-h]quinoline-5-yl]-carboxylic acid methylamide] displayed an inhibition in vivo at 3 µmol/kg above 15%.
Still for that read-out and setting: as for `Cc1nc2c3c(c(C(=O)N(C)C)cc2n1C)C(O)[C@H](O)[C@@H](c1ccccc1)N3` (stereo partly drawn) [Example 12, (7R,8R)-[6,7-Dihydroxy-2,3-dimethyl-8-phenyl-6,7,8,9-tetrahydro-3H-imidazo[4,5-h]quinoline-5-yl]carboxylic acid dimethylamide], the figure is above 15%; as for `CCCCO[C@H]1c2c(C(=O)N(C)C)cc3c(nc(C)n3C)c2N[C@H](c2ccccc2)[C@H]1O` [Example 13, (6S,7R,8R)-[6-n-Butyloxy-7-hydroxy-2,3-dimethyl-8-phenyl-6,7,8,9-tetrahydro-3H-imidazo[4,5-h]quinoline-5-yl]-carboxylic acid dimethylamide], above 15%.
On to `CCCCO[C@@H]1c2c(C(=O)N(C)C)cc3c(nc(C)n3C)c2N[C@H](c2ccccc2)[C@H]1O` [Example 14, (6R,7R,8R)-[6-n-Butyloxy-7-hydroxy-2,3-dimethyl-8-phenyl-6,7,8,9-tetrahydro-3H-imidazo[4,5-h]quinoline-5-yl]-carboxylic acid dimethylamide], for which the inhibition in vivo at 3 µmol/kg is above 15%.
Still for that read-out and setting: as for `Cc1nc2c3c(c(C(=O)N(C)C)cc2n1C)C[C@@H](O)[C@@H](c1ccccc1)N3` [Example 15, (7R,8R)-[7-Hydroxy-2,3-dimethyl-8-phenyl-6,7,8,9-tetrahydro-3H-imidazo[4,5-h]quinoline-5-yl]-carboxylic acid dimethylamide], the figure is above 15%.

Tested on in the next data set: not given
Experiment: not given
Settings: not given
As to `CNC(=O)c1cc2c(nc(C)n2C)c2c1C[C@@H](O)[C@@H](c1ccccc1)N2` [Example 11, (7R,8R)-[7-Hydroxy-2,3-dimethyl-8-phenyl-6,7,8,9-tetrahydro-3H-imidazo[4,5-h]quinoline-5-yl]-carboxylic acid methylamide], the melting point lay in the range of 265 to 268 °C.
